# Results published in patent publication US8912120B2, “Herbicidal compositions comprising 4-amino-3-chloro-5-fluoro-6-(4-chloro-2-fluoro-3-methoxyphenyl) pyridine-2-carboxylic acid or a derivative thereof and synthetic auxin herbicides” (Dow AgroSciences, LLC., priority 2012, dated 2014).
# Assays:
# [1] = system: POLCO; assay: Example IV: postemergence foliar-applied herbicidal mixtures, cereal crops, POLCO; format: in vivo, Polygonum convolvulus (wild buckwheat); conditions: alone, 140 gai/ha, foliar, 20-22 days
# Protocol: (§1) Seeds of the desired test plant species were planted in Sun Gro MetroMix 306 planting mixture, which typically has a pH of 6.0 to 6.8 and an organic matter content of about 30 percent, in plastic pots with a surface area of 103.2 square centimeters (cm^2). […] The plants were grown for 7-36 days in a greenhouse with an approximate 14 hour photoperiod which was maintained at about 18° C. during the day and 17° C. during the night.
# (§2) Spray solutions of the second cereal herbicide and experimental compound mixtures were prepared by adding the stock solutions to the appropriate amount of dilution solution to form 12 mL spray solution with active ingredients in two- and three-way combinations.
# [2] = system: VIOTR; assay: Example IV: postemergence foliar-applied herbicidal mixtures, cereal crops, VIOTR; format: in vivo, Viola tricolor (wild pansy); conditions: 140 gai/ha
# Protocol: as §1, §2
# [3] = system: BRSNN; assay: Example IV: postemergence foliar-applied herbicidal mixtures, cereal crops, BRSNN; format: in vivo, Brassica napus (volunteer canola); conditions: 140 gai/ha
# Protocol: as §1, §2
# [4] = system: CENMA; assay: Example V: postemergence herbicidal activity of mixtures in forage crops, CENMA; format: in vivo, Centaurea maculosa (spotted knapweed); conditions: alone, foliar, approximately 21 days
# Protocol: as §1, with “Seeds or root cuttings” for “Seeds”, “MetroMix®” for “MetroMix”, “126.6” for “103.2”, “14-60” for “7-36”, “approximately 28°” for “about 18°”, “24°” for “17°”
# (§3) Spray solutions of the second herbicide or experimental compound mixtures were prepared by adding the stock solutions to the appropriate amount of dilution solution to form 12 mL spray solution with active ingredients in two-way combinations.
# [5] = system: SINAR; assay: Example V: postemergence herbicidal activity of mixtures in forage crops, SINAR; format: in vivo, Sinapis arvensis (wild mustard); conditions: alone, foliar, approximately 21 days
# Protocol: as §1, with “Seeds or root cuttings” for “Seeds”, “MetroMix®” for “MetroMix”, “126.6” for “103.2”, “14-60” for “7-36”, “approximately 28°” for “about 18°”, “24°” for “17°”
# as §3
# [6] = system: TRFRE; assay: Example V: postemergence herbicidal activity of mixtures in forage crops, TRFRE; format: in vivo, Trifolium repens (white clover); conditions: alone, foliar, approximately 21 days
# Protocol: as §1, with “Seeds or root cuttings” for “Seeds”, “MetroMix®” for “MetroMix”, “126.6” for “103.2”, “14-60” for “7-36”, “approximately 28°” for “about 18°”, “24°” for “17°”
# as §3
# [7] = system: ECHCG; assay: Example II: in-water applied herbicidal mixtures, transplanted paddy rice, ECHCG; format: in vivo, Echinochloa crus-galli (barnyardgrass); conditions: 20 DAA
# Protocol: (§4) The prepared mud was dispensed in 365 mL aliquots into 16-ounce (oz.) non-perforated plastic pots with a surface area of 86.59 square centimeters (cm^2) leaving a headspace of 3 centimeters (cm) in each pot Mud was allowed to dry overnight prior to planting or transplanting. Rice seeds were planted in Sun Gro MetroMix® 306 planting mixture, which typically has a pH of 6.0 to 6.8 and an organic matter content of about 30 percent, in plastic plug trays. Seedlings at the second or third leaf stage of growth were transplanted into 840 mL of mud contained in 32-oz. non-perforated plastic pots with a surface area of 86.59 cm^2 4 days prior to herbicide application. […] Nutrients were added as Osmocote® (19:6:12, N:P:K^+ minor nutrients) at 2 g per 16-oz. pot and 4 g per 32-oz. pot.
# (§5) Applications were made by injecting with a pipetter appropriate amounts of the application solutions, individually and sequentially, into the aqueous layer of the paddy. Control plants were treated in the same manner with the solvent blank. Applications were made so that all treated plant material received the same concentrations of acetone and crop oil concentrate.
# [8] = system: CYPRO; assay: Example II: in-water applied herbicidal mixtures, weed control in transplanted paddy rice (greenhouse), CYPRO; format: in vivo, Cyperus rotundus (purple nutsedge); conditions: 20 DAA
# Protocol: as §4, §5
# [9] = system: IPOHE; assay: Example I: postemergence foliar-applied herbicidal mixtures, direct seeded rice, IPOHE; format: in vivo, Ipomoea hederacea (ivyleaf morningglory)
# Protocol: (§6) The soil matrix was contained in plastic pots with a volume of 1 quart and a surface area of 83.6 square centimeters (cm^2). […] The plants were grown for 8-22 days in a greenhouse with an approximate 14 h photoperiod which was maintained at about 29° C. during the day and 26° C. during the night. Nutrients (Peters Excel® 15-5-15 5-Ca 2-Mg and iron chelate) were applied in the irrigation solution as needed and water was added on a regular basis. Supplemental lighting was provided with overhead metal halide 1000-Watt lamps as necessary. The plants were employed for testing when they reached the first through fourth true leaf stage.
# (§7) Treatments consisted of the acid or esters of 4-amino-3-chloro-5-fluoro-6-(4-chloro-2-fluoro-3-methoxy-phenyl)pyridine-2-carboxylic acid (Compound A), each formulated as an SC (suspension concentrate), and various herbicidal components alone and in combination. Forms of compound A were applied on an acid equivalent basis.
# (§8) For treatments comprised of formulated compounds, measured amounts of compounds were placed individually in 25 mL glass vials and diluted in a volume of 1.25% (v/v) Agri-Dex® crop oil concentrated to obtain 12× stock solutions. […] Application solutions were prepared by adding an appropriate amount of each stock solution (e.g., 1 mL) and diluted to the appropriate final concentrations with the addition of 10 mL of an aqueous mixture of 1.25% (v/v) crop oil concentrate so that the final spray solutions contained 1.25+/−0.05% (v/v) crop oil concentrate.
# (§9) All stock solutions and applications solutions were visually inspected for compound compatibility prior to application. Spray solutions were applied to the plant material with an overhead Mandel track sprayer equipped with a 8002E nozzles calibrated to deliver 187 L/ha over an application area of 0.503 m^2 at a spray height of 18 to 20 inches (46 to 50 cm) above average plant canopy height. Control plants were sprayed in the same manner with the solvent blank.
# (§10) The treated plants and control plants were placed in a greenhouse as described above and watered by sub-irrigation to prevent wash-off of the test compounds. After approximately 3 weeks, the condition of the test plants as compared with that of the untreated plants was determined visually and scored on a scale of 0 to 100 percent where 0 corresponds to no injury or growth inhibition and 100 corresponds to complete kill.
# (§11) Colby's equation was used to determine the herbicidal effects expected from the mixtures (Colby, S. R. 1967. Calculation of the synergistic and antagonistic response of herbicide combinations. Weeds 15:20-22).
# (§12) The following equation was used to calculate the expected activity of mixtures containing two active ingredients, A and B: Expected=A+B−(A×B/100)
# (§13) A=observed efficacy of active ingredient A at the same concentration as used in the mixture.
# (§14) B=observed efficacy of active ingredient B at the same concentration as used in the mixture.
# [10] = system: CYPIR; assay: Example I: postemergence foliar-applied herbicidal mixtures, direct seeded rice, CYPIR; format: in vivo, Cyperus iria (rice flatsedge)
# Protocol: as §6, §7, §8, §9, §10, §11, §12, §13, §14
# [11] = system: ECHOR; assay: Example II: in-water applied herbicidal mixtures, transplanted paddy rice, ECHOR; format: in vivo, Echinochloa oryzoides (early watergrass)
# Protocol: as §4, §5
# [12] = system: LEFCH; assay: Example I: postemergence foliar-applied herbicidal mixtures, direct seeded rice, LEFCH; format: in vivo, Leptochloa chinensis (Chinese sprangletop)
# Protocol: as §6, §7, §8, §9, §10, §11, §12, §13, §14
# [13] = system: ECHCG; assay: Example I: postemergence foliar-applied herbicidal mixtures, direct seeded rice, ECHCG; conditions: 16 gae/ha
# [14] = system: SCPMA; assay: Example II: in-water applied herbicidal mixtures, transplanted paddy rice, SCPMA; format: in vivo; conditions: 20 DAA
# Protocol: as §4, §5
# [15] = system: LEFCH; assay: Example II: in-water applied herbicidal mixtures, transplanted paddy rice, LEFCH; format: in vivo, Leptochloa chinensis (Chinese sprangletop); conditions: for Visual Weed Control (%) Obs: 19 DAA
# Protocol: as §4, §5
# [16] = 280 gai/ha, in-water application
compound,measurement,setting,value
"Cc1cc(Cl)ccc1OCC(=O)O [MCPA, 2-(4-chloro-2-methylphenoxy)acetic acid]",POLCO Ob (observed value),[1],0%
same,VIOTR Ob (observed value),"[2]; alone, foliar, 20-22 days",40%
same,BRSNN Ob (observed value),"[3]; alone, foliar, 20-22 days",70%
Nc1c(Cl)c(Cl)nc(C(=O)[O-])c1Cl.[K+] [Picloram K^+ Salt],CENMA Obs (observed value),[4]; 35 gae/ha,20%
same,CENMA Obs (observed value),[4]; 70 gae/ha,50%
same,SINAR Obs (observed value),[5]; 35 gae/ha,30%
same,SINAR Obs (observed value),[5]; 70 gae/ha,70%
"C[C@@H](Oc1ccc(Cl)cc1Cl)C(=O)O [Dichlorprop-P, (2R)-2-(2,4-dichlorophenoxy)propanoic acid]",Weed Control Ob,[2]; after 20-22 days,27%
same,Weed Control Ob,[3]; after 20-22 days,57%
"Nc1nc(C2CC2)nc(C(=O)O)c1Cl [Aminocyclopyrachlor, 6-amino-5-chloro-2-cyclopropyl-4-pyrimidinecarboxylic acid, reference compound]",CENMA Obs (observed value),[4]; 8.75 gae/ha,55%
same,CENMA Obs (observed value),[4]; 17.5 gae/ha,60%
same,TRFRE Obs (observed value),[6]; 8.75 gae/ha,45%
same,TRFRE Obs (observed value),[6]; 17.5 gae/ha,55%
same,SINAR Obs (observed value),[5]; 8.75 gae/ha,25%
same,SINAR Obs (observed value),[5]; 17.5 gae/ha,45%
"COC(=O)c1nc(-c2ccc(Cl)c(OC)c2F)cc(N)c1Cl [Halauxifen-Methyl Ester, methyl 4-amino-3-chloro-6-(4-chloro-2-fluoro-3-methoxyphenyl)picolinate, reference compound]",Visual Weed Control (%) Obs,[7]; 4.38 gae/ha,50%
same,Visual Weed Control (%) Obs,[7]; 8.75 gae/ha,60%
same,Visual Weed Control (%) Obs,[8]; 4.38 gae/ha,70%
same,Visual Weed Control (%) Obs,[8]; 8.75 gae/ha,50%
same,Visual Weed Control (%) - 20 DAA IPOHE Obs,[9]; 2.19 gae/ha,0%
same,Visual Weed Control (%) - 20 DAA IPOHE Obs,[9]; 4.38 gae/ha,0%
same,Visual Weed Control (%) - 20 DAA CYPIR Obs,[10]; 2.19 gae/ha,25%
same,Visual Weed Control (%) - 20 DAA CYPIR Obs,[10]; 4.38 gae/ha,70%
same,pest or weed control at 4.38 g/ha,"[11]; Echinochloa oryzoides, 480 h, 20 DAA, 4.38 gae/ha, read-out: Visual Weed Control (%) Obs",25%
same,pest or weed control at 8.75 g/ha,"[11]; Echinochloa oryzoides, 480 h, 20 DAA, 8.75 gae/ha, read-out: Visual Weed Control (%) Obs",35%
same,Visual Weed Control (%) - 20 DAA LEFCH Obs,[12]; 2.19 gae/ha,0%
same,Visual Weed Control (%) - 20 DAA LEFCH Obs,[12]; 4.38 gae/ha,10%
CCCCOC(=O)c1nc(-c2ccc(Cl)c(OC)c2F)c(F)c(N)c1Cl [Compound A n-Butyl Ester],Visual Weed Control (%) - 19 DAA ECHCG Obs,[13],65%
same,Visual Weed Control (%) Obs,[14]; 35 gae/ha,0%
same,Visual Weed Control (%) Obs,[14]; 70 gae/ha,0%
same,Visual Weed Control (%) Obs,[15]; 35 gae/ha,43%
same,Visual Weed Control (%) Obs,"[11]; 19 DAA, 35 gae/ha",80%
"CCCCC(CC)COC(=O)COc1ccc(Cl)cc1C (centres unmarked) [MCPA EHE, 2-ethylhexyl 2-(4-chloro-2-methylphenoxy)acetate, reference compound]",Visual Weed Control (%) Obs,[15]; 280 gai/ha,0%
same,Visual Weed Control (%) - 19 DAA LEFCH Obs,[15]; [16],0%
same,Visual Weed Control (%) - 19 DAA ECHOR Obs,[11]; [16],30%
